Data on 4 molecules can be found in patent US11834443B2, “Crystalline form of the compound (s)-3-{4-[5-(2-cyclopentyl-6-methoxy-pyridin-4-yl)-[1,2,4]oxadiazol-3-yl]-2-ethyl-6-methyl-phenoxy}-propane-1,2-diol” (Idorsia Pharmaceuticals Ltd, priority 2015, dated 2023).

Converted amounts (≈) assume the structure as drawn.

One data set in a line: Aqueous solubility. The format is physicochemical. The settings on record: in water.
A short description of data set [1]: Gravimetric vapour sorption (GVS) analysis, hygroscopicity. The format is physicochemical. The settings on record: mass change between 40% and 80% relative humidity, first adsorption scan, 25° C. As for the experimental part:
Gravimetric Vapour Sorption (GVS) Analysis:
Measurements were performed simultaneously for the COMPOUND in the crystalline form A, B, and C on a multi sample instrument SPS-100n (Projekt Messtechnik, Ulm, Germany) operated in stepping mode at 25° C.

One may read the solubility as the concentration that dissolves in the medium under given conditions. Read a low solubility as little dissolved substance. In the case of `CCc1cc(-c2noc(-c3cc(OC)nc(C4CCCC4)c3)n2)cc(C)c1OC[C@@H](O)CO` [COMPOUND, (S)-3-{4-[5-(2-cyclopentyl-6-methoxy-pyridin-4-yl)-[1,2,4]oxadiazol-3-yl]-2-ethyl-6-methyl-phenoxy}-propane-1,2-diol], in the data set “Aqueous solubility”, the solubility was ~0.06 µg/mL (≈ 0.132 µM).

On to `CCc1cc(-c2noc(-c3cc(OC)nc(C4CCCC4)c3)n2)cc(C)c1OC[C@@H](O)CO` [Form A, (S)-3-{4-[5-(2-cyclopentyl-6-methoxy-pyridin-4-yl)-[1,2,4]oxadiazol-3-yl]-2-ethyl-6-methyl-phenoxy}-propane-1,2-diol], for which, in data set [1], the “hygroscopic classification (European Pharmacopeia Technical Guide)” value (from here on “hygroscopic classification”) is “Non-hygroscopic” and the mass gain result is recorded as “less than 0.2%”.

As for `CCc1cc(-c2noc(-c3cc(OC)nc(C4CCCC4)c3)n2)cc(C)c1OC[C@@H](O)CO` [Form B, (S)-3-{4-[5-(2-cyclopentyl-6-methoxy-pyridin-4-yl)-[1,2,4]oxadiazol-3-yl]-2-ethyl-6-methyl-phenoxy}-propane-1,2-diol], in data set [1], the “hygroscopic classification” value is reported as “Slightly hygroscopic” and the mass gain is on record as 0.5%.

Take `CCc1cc(-c2noc(-c3cc(OC)nc(C4CCCC4)c3)n2)cc(C)c1OC[C@@H](O)CO` [Form C, (S)-3-{4-[5-(2-cyclopentyl-6-methoxy-pyridin-4-yl)-[1,2,4]oxadiazol-3-yl]-2-ethyl-6-methyl-phenoxy}-propane-1,2-diol]: in data set [1], the “hygroscopic classification” value is “Slightly hygroscopic” and the mass gain was 0.8%.
